Common to all, as to type: biochemical
The target in experiment [1] is T1, Human recombinant ALDH3A1 (Homo sapiens, UniProt P30838).
T1 sequence (P30838 1-453): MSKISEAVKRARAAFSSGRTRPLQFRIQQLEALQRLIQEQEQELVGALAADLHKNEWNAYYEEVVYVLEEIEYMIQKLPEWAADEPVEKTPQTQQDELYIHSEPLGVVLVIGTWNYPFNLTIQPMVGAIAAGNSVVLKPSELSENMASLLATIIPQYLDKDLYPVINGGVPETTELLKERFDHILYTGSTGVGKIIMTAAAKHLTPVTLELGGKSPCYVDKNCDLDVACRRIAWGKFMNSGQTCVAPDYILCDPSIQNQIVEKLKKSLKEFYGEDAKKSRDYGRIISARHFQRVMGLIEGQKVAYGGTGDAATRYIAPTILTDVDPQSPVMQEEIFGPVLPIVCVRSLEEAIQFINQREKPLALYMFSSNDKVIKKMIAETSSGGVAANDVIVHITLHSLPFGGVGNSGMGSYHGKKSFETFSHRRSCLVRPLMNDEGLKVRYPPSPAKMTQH
In words: Enzymatic assay with human recombinant ALDH3A1 (NADP+, 4-NBA), IC50. The settings on record: substrate 4-Nitrobenzaldehyde, 37° C. How it is done:
For ALDH3A1 (1 mg/mL), 10 μL of enzyme was added into a reaction buffer containing 50 mM Tris, 5 mM DTT, pH 8, plus 40 mM Nicotinamide adenine dinucleotide phosphate (oxidized form, NADP^+) and 4-Nitrobenzaldehyde (4-NBA) (Sigma-.Aldrich). Internal standards were prepared with Nicotinamide adenine dinucleotide phosphate reduced form (NADPH, 5 μM, Sigma-Aldrich) in Reaction Buffer (50 mM Tris, 5 mM DTT, pH 8).
(§1) Time-dependent inhibition assays were performed for 0-2-5-10-15-20-30-45-60 min at 37° C. in 1 mL-quartz cuvette. The formation of NADH was monitored, reading samples at excitation wavelength=340 nm/emission wavelength=460 nm (fluorescence) for at least 600 sec using Cary Eclipse Varian fluorimeter.
(§2) Negative control consisted in the same reactions except that enzyme was not added (enzyme blank). To determine the slope for enzyme blank and calculate product concentration (Unit of fluorescence) the following formulae was used: […]
(§3) where Cst is the standard NADH concentration, Fst is the standard fluorescence and dF/dt is the slope of the time dependent fluorescence (S. Sotobodowska et al, 2012). The specific activity of the enzymes (μmol/min·mg-U/mg) in the absence of presence of inhibitors was calculated as follows: […]

The next experiment addresses T2, Human recombinant ALDH2 (Homo sapiens, UniProt P05091).
T2 construct: purchased Creative BioMart, NY, USA
T2 sequence (P05091 18-517): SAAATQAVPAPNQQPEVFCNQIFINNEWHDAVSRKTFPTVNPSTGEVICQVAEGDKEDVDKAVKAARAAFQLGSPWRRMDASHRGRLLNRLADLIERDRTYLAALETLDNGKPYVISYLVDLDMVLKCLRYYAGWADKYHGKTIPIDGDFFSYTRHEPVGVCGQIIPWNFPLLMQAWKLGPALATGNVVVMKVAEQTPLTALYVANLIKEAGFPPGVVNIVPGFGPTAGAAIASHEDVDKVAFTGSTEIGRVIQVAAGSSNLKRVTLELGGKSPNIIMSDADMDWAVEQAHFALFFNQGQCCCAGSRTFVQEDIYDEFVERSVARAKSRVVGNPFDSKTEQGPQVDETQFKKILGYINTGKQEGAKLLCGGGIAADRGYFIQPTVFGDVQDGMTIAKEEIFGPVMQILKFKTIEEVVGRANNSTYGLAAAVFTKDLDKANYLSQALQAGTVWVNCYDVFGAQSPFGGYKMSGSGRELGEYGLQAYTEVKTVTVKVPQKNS
As to the kind of experiment: Enzymatic assay with human recombinant ALDH (NADH fluorescence), IC50. The settings on record: substrate Hexanal, NAD+, 37° C. The method, then:
(§4) Human recombinant ALDH1A1, ALDH1 A2, ALDH1A3, ALDH2 (Creative BioMart, NY, USA) were prepared at 1 mg/mL. The enzymatic reactions were performed using saturating concentrations of substrate. To test the enzymatic activity of the enzymes, 10 μL of enzyme was added into a reaction buffer containing 50 mM HEPES pH 7.2, 30 mM MgCl2, plus 20 mM NAD^+ cofactor and 2 mM Hexanal (Sigma-Aldrich, St. Louis, Mo., USA) in the presence or absence of the different tested compounds. Internal standards were prepared with Nicotinamide adenine dinucleotide reduce form (NADH, 500 μM, Sigma-Aldrich) in Reaction Buffer (50 mM HEPES pH 7.2, 30 mM MgCl2).
as §1, §2, §3

The target in experiment [2] is T3, Human recombinant ALDH1A2 (Homo sapiens, UniProt O94788).
T3 construct: purchased Creative BioMart, NY, USA
T3 sequence (O94788 1-518): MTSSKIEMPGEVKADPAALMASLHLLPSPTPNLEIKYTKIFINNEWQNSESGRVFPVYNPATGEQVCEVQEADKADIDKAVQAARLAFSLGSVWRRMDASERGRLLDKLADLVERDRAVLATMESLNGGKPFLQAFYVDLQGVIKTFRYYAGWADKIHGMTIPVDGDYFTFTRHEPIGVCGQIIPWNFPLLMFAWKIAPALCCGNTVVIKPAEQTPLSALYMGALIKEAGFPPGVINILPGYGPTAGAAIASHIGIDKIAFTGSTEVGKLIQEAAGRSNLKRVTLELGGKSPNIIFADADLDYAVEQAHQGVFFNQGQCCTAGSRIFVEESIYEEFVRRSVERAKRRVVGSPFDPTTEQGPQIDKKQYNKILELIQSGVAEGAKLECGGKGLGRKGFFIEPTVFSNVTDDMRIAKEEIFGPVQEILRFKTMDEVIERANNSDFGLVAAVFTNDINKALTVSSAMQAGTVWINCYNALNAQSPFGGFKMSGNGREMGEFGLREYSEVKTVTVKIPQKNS
The description is as above. The settings on record: substrate Hexanal, NAD+, 37° C. The method, then: as §4, §1, §2, §3

Experiment [3] addresses T4, Human recombinant ALDH1A3 (Homo sapiens, UniProt P47895).
T4 construct: purchased Creative BioMart, NY, USA
T4 sequence (P47895 1-512): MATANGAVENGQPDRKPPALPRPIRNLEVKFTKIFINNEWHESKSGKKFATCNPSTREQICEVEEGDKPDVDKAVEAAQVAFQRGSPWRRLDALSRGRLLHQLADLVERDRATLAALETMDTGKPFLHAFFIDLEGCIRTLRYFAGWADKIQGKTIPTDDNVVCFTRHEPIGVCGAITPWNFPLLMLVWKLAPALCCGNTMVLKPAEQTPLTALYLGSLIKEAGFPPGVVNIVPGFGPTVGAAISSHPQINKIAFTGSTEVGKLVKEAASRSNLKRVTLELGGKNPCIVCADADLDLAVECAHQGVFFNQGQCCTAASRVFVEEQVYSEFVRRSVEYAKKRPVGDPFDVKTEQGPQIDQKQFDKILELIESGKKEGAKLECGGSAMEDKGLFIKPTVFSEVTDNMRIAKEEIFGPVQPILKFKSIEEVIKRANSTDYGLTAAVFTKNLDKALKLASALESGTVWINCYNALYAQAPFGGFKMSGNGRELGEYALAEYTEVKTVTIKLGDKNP
The description is as above. The settings on record: substrate Hexanal, NAD+, 37° C. The method, then:
as §4, §1, §2, §3

With `CSC(=O)C#CC(C)(C)N(C)C` [DIMATE, S-methyl 4-(dimethylamino)-4-methylpent-2-ynethioate, reference compound], the IC50 (in general, the concentration at which inhibition is half-maximal) in experiment [1] is 303 ± 46 µM; on Human recombinant ALDH2, 72 ± 9 µM; in experiment [2], 18 ± 4 µM; in experiment [3], 20 ± 2 µM.

As to `CSC(=O)C#CC(C)(C)N(C)CCOCc1ccccc1` [Example 3, S-methyl 4-[2-benzyloxyethyl(methyl)amino]-4-methyl-pent-2-ynethioate], the half-inhibitory concentration (IC50) was determined as 242 ± 11 µM in experiment [1], 3.1 ± 0.8 µM on Human recombinant ALDH2, 0.568 ± 0.09 µM in experiment [2] and 3.4 ± 0.1 µM in experiment [3].

Take `CSC(=O)C#CC(C)(C)N(C)CCOCc1ccc(C)c(C)c1` [Example 5, S-methyl 4-[2-[(3,4-dimethylphenyl)methoxy]ethyl-methyl-amino]-4-methyl-pent-2-ynethioate]: the concentration for half-maximal inhibition (IC50) in experiment [1] stood at 143 ± 2 µM; on Human recombinant ALDH2, 12 ± 3 µM; in experiment [2], 1.3 ± 0.2 µM; in experiment [3], 4.8 ± 0.1 µM.
